“Also recorded” adds a separate entry of the source.
What was measured:
DHS2^WT [1] = biological target: T1, DHS2^WT (Arabidopsis thaliana, UniProt Q00218); test: DHS enzyme assay, recombinant DHS2^WT; type: biochemical; conditions: recombinant enzyme; read-out: IC50 of effector molecule on DHS2^WT
T1 construct: without the predicted plastid transit peptide (amino acid residues; 49-525, 34-507, and 52-527, respectively); made in house; host or cells: E. coli Rosetta-2
Method: To generate recombinant DHS proteins the pET28a vectors carrying the A. thaliana DHS1 (AtDHS1), AtDHS2, or AtDHS3 WT sequence without the predicted plastid transit peptide (amino acid residues; 49-525, 34-507, and 52-527, respectively) were expressed in E. coli Rosetta-2 cells and purified using Ni-affinity chromatography, exactly as was conducted previously (9). To generate DHS proteins with individual sota mutations via site-directed mutagenesis, these pET28a plasmid templates were diluted by 500-fold, mixed with 0.04 U/μL Phusion DNA polymerase (Thermo Scientific), 0.2 mM deoxynucleoside triphosphates (dNTPs), 1× Phusion reaction buffer (Thermo Scientific), and 0.5 μM forward and reverse mutagenesis primers (Table 10). The PCR reaction was run using the following protocol: 98° C. for 30 s followed by 20 cycles of 10 s at 98° C., 20 s at 70° C., 4.5 min at 72° C. with a final extension at 72° C. for 10 min. The PCR products were purified using a QIAquick Gel Extraction Kit (QIAGEN), treated with FastDigest DpnI (Thermo Scientific) to digest methylated plasmid template DNA for 20 min at 37° C., and transformed into E. coli cells. The mutagenized pET28a plasmids were sequenced to confirm that no errors were introduced during the mutagenesis process.
The DHS enzyme assays were conducted using the colorimetric method that we recently described (9). Briefly, the enzyme solution (7.7 μl) containing 50 mM Hepes (pH 7.4) was preincubated with an effector molecule(s) at room temperature for 15 min. For assays using recombinant protein and enzyme fractions isolated from plant leaves, 0.01 to 0.1 μg and approximately 50 μg of proteins were used, respectively. After adding 0.5 μl of 0.1 M dithiothreitol, the samples were further incubated at room temperature for 15 min. During these incubations, the substrate solution containing 50 mM Hepes (pH 7.4), 2 mM MnCl2, 4 mM E4P, and 4 mM PEP at final concentration was preheated at 37° C. The enzyme reaction was started by adding 6.8 μl of the substrate solution, then incubated at 37° C. for 30 min, and terminated by adding 30 μl of 0.6 M trichloroacetic acid. After a brief centrifugation, 5 μl of 200 mM NaIO4 (sodium meta-periodate) in 9 N H3PO4 was added to oxidize the enzymatic product and to incubate at 25° C. for 20 min. To stop the oxidation reaction, 20 μl of 0.75 M NaAsO2 (sodium arsenite), which was dissolved in 0.5 M Na2SO4 and 0.05 M H2SO4, was added and immediately mixed. After 5 min of incubation at room temperature, one-third of the sample solution was transferred to a new tube to be mixed with 50 μl of 40 mM thiobarbituric acid and incubated at 99° C. for 15 min in a thermal cycler. The mixture was added to 600 μl of cyclohexanone in eight-strip solvent-resistant plastic tubes, mixed vigorously, and centrifuged at 4500 g for 3 min to separate water- and cyclohexanone-based layers for the extraction off the developed pink chromophore. The absorbance of the pink supernatant was read at 549 nm with the microplate reader (Infinite 200 PRO, TECAN) to calculate DAHP production with the molar extinction coefficient at 549 nm (ε=549 nm) of 4.5×10^4 M^−1 cm^−1. Reaction mixtures with boiled enzymes were run in parallel and used as negative controls to estimate the background signal.

DHS2^WT [2] = biological target: T1, DHS2^WT; test: Differential scanning fluorimetry (DSF) protein-ligand affinity analysis, DHS2^WT; type: binding; conditions: ligand at 1 mM
Method: (§1) To examine the impact of the sota mutations on the interaction between DHS and AAA effectors (FIG. 22), a differential scanning fluorimetry (DSF) analysis (48) was conducted using the recombinant DHS2^WT and DHS2^A4 proteins. […] The fluorescence signal was monitored during the stepwise increase in temperature (1° C. per minute from 25° C. to 95° C.). The Tm was calculated by nonlinear regression analysis using the Boltzmann sigmoidal equation (48).

DHS2^A4 = biological target: T2, DHS2^A4 (Arabidopsis thaliana, UniProt Q00218, G222S); test: Differential scanning fluorimetry (DSF) protein-ligand affinity analysis, DHS2^A4; type: binding; conditions: ligand at 1 mM
T2 construct: without the predicted plastid transit peptide (amino acid residues; 49-525, 34-507, and 52-527, respectively); made in house; host or cells: E. coli
T2 sequence (Q00218 34-507 G222S): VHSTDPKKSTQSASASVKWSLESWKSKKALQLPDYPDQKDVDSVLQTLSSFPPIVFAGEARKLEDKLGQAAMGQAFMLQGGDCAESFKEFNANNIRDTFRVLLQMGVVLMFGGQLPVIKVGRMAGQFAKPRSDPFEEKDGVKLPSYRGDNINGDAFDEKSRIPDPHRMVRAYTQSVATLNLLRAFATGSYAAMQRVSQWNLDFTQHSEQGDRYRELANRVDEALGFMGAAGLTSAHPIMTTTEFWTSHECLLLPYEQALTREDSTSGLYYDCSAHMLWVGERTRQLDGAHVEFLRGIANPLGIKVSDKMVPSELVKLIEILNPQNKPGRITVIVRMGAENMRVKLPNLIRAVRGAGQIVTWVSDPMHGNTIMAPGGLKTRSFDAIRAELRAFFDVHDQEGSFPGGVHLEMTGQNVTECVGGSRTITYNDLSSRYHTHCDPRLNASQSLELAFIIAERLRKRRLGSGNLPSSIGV
Method: as §1

DHS3^WT = conditions: AAAs: from Yokoyama et al., Plant Cell, 2021; cited from earlier work

T1 sequence (Q00218 34-507): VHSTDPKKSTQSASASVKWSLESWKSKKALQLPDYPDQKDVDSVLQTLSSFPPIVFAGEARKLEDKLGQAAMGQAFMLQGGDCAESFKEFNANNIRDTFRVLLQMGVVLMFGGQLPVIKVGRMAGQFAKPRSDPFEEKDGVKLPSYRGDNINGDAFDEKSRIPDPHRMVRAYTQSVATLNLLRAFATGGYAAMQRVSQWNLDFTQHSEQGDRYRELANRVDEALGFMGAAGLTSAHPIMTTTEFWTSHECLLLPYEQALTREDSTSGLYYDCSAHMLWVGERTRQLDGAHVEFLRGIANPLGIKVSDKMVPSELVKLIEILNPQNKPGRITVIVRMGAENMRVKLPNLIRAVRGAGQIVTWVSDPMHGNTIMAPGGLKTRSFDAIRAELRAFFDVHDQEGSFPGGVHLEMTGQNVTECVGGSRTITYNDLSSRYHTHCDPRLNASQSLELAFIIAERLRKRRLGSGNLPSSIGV

| Structure (SMILES) | IC50 (DHS2^WT [1]) [µM] | effect on melting temperature (Tm) of DHS2^WT (DHS2^WT [2]) | effect on melting temperature (Tm) / binding of DHS2^A4 (DHS2^A4) | IC50 of effector molecule on DHS3^WT (DHS3^WT) |
| --- | --- | --- | --- | --- |
| O=C(O)Cc1cc(O)ccc1O [HGA, homogentisate] | 73.9 |  |  |  |
| N[C@@H](Cc1c[nH]c2ccccc12)C(=O)O [Trp, tryptophan] |  | significantly increased the Tm | still binds; also recorded: significantly increased the Tm | Not inhibited |

Reference: patent publication US20250043299A1, “POINT MUTATIONS THAT BOOST AROMATIC AMINO ACID PRODUCTION AND CO2 ASSIMILATION IN PLANTS” (Wisconsin Alumni Research Foundation, priority 2021, published 2025)
